Reference: patent US20260009064A1, “STEROL PRODUCTION IN YEAST” (APIX BIOSCIENCES, priority 2021, published 2026)

System: managed honeybee colonies
Assay: Artificial diets with dried engineered yeast powder fed to managed honeybee colonies (APIDEA hives, three months)
Assay type: in vivo
Details: inferred from platform strain diet versus wild-type yeast diet
Procedure: Yeast strains ST4842 (wild-type, containing ergosterol), ST11005 (platform strain engineered to produce tetrahymanol, containing ergosterol and tetrahymanol) and ST12178 (mixed sterol producing strain producing desired phytosterols and tetrahymanol) were cultivated by 5-L fed-batch fermentation as described above. At the end of fermentation, the yeast biomass was recovered from the culture by centrifugation (4000×g, 20 min) and washed with deionized water. The biomass was heat-inactivated and dried (60° C. for a minimum of 24 h). The dried material was ground to a fine powder and stored at −20° C. until further use.
The yeast biomass was then incorporated at 20% w/w into a holidic diet designed to provide additional protein, lipid, sugar, vitamins and minerals. […]
Honeybee colonies were maintained for three months in APIDEA hives (Styrofoam queen mating mini nucleus hives, (Paynes Southdown Bee Farms Ltd, West Sussex. UK) made up of one brood box with five frames and a top feeder with a hole for petty delivery. Hives were maintained within a closed glasshouse environment designed to negate bee escape. Hives were distributed across two rooms of the glasshouse, with varying orientation. Feeders with 30% w/v sugar solution and water were distributed inside the glasshouse and replenished as required. Regular temperature and humidity measurements were recorded on a datalogger. […]

`CC1(C)CCC[C@]2(C)[C@H]3CC[C@@H]4[C@@]5(C)CC[C@H](O)C(C)(C)[C@@H]5CC[C@@]4(C)[C@]3(C)CC[C@@H]12` [tetrahymanol] was tested, and the “adverse effects in honeybee colonies” value was “does not have adverse effects”.
